Earlier results as cited in article PMC4621754, “Parasitic diarrheal disease: drug development and targets” (Frontiers in Microbiology, 2015).
Like-named read-outs stand apart in the source and are kept apart here.

Columns and labels:
[1] = test system: E. histolytica
[2] = test system: G. intestinalis
[3] = test system: G. lamblia
[4] = test system: E. intestinalis; parameters: method as in Didier et al., 2006; conditions: in vitro; ref Didier et al., 2006
[5] = test system: I. belli; conditions: for cure of I. belli induced diarrhea: ref Trier et al., 1974, Syrkis et al., 1975, Butler and De Boer, 1981, Weiss et al.; for cure of diarrheal disease caused by I. belli: Ebrahimzadeh and Bottone, 1996
[6] = test system: microsporidia; parameters: method as in Didier et al., 2005; conditions: ref Didier et al., 2005
[7] = HM1: IMSS strain, ref Wani et al., 2012b
[8] = HM1:IMSS strain, ref Duque-Montaño et al., 2013
[9] = in vitro, ref Torres-Gomez et al., 2008b
[10] = ref Hernández-Nunez et al., 2009
[11] = ref Navarrete-Vazquez et al., 2003
[12] = in vitro, ref Hernández-Nunez et al., 2009

1,1^∕-(10,15-diphenyl-21,23-dithiaporphine-5,20-diyl)bis[2-{[methyl(phenylmethyl)amino]methyl}-ferrocene] [Compound 34]
IC50 ([1]; in vitro, HM1:IMSS strain, ref Bhat et al., 2009b): 590 nM

Cc1ccc(/C=C/C(=O)c2ccc(C)cc2)cc1 [Compound 25, (2E)-1,3-bis(4-methylphenyl)prop-2-en-1-one]
IC50 [1, 7]: 4190 nM

COc1ccc(-c2nnnn2CC(=O)N2N=C(c3ccccc3)CC2c2ccc(OC)cc2)cc1 (stereo not shown) [Compound 26, 1-(4,5-dihydro-5-(4-methoxyphenyl)-3-phenylpyrazol-1-yl)-2-(5-(4-methoxyphenyl)-1H-tetrazol-1-yl)ethanone]
IC50 [1, 7]: 1160 nM

O=[N+]([O-])c1ccc(S(=O)(=O)Nc2nc(NS(=O)(=O)c3ccc([N+](=O)[O-])cc3)nc(-c3ccc4c(c3)OCO4)n2)cc1 [Compound 27, N, N^∕-6-(1,3-benzodioxol-5-yl)-(1,3,5-triazine-2,4-diyl)-bis-4-nitrobenzene sulphonamide]
IC50 ([1]; ref Wani et al., 2012a): 1020 nM

O=S(=O)(Nc1nc(-c2ccccc2)cc(-c2ccccc2Cl)n1)c1ccccc1 [Compound 28, N-[4-(2-chlorophenyl)-6-phenylpyrimidin-2-yl]-benzenesulphonamide]
IC50 ([1]; in vitro, ref Siddiqui and Azam, 2014): 440 nM

COc1ccc(C2ON=C(c3ccc([N+](=O)[O-])s3)O2)cc1 (stereo not shown) [Compound 29, 5-(4-methoxy-phenyl)-3-(5-nitro-2-thienyl)-1,4,2-dioxazole]
IC50 ([1]; in vitro, ref Irfan et al., 2010): 1600 nM

Cc1cccc(NC(=S)NN=Cc2ccc(-c3c4nc(c(-c5ccccc5)c5ccc([nH]5)c(-c5ccccc5)c5nc(c(-c6ccccc6)c6ccc3[nH]6)C=C5)C=C4)cc2)c1 [Compound 30, 4-(3-methylphenyl)-1-{[4-(10,15,20-triphenylporphyrin-5-yl)phenyl]methylidene}thiosemicarbazide]
IC50 ([1]; ref Bhat et al., 2008): 538 nM

CC(=NNC(=S)NCc1ccc(C)cc1)c1c(O)ccc2ccc(=O)oc12 [Compound 31, 7-hydroxy-8-acetylcoumarin-N(4,4)methylbenzyl thiosemicarbazone]
IC50 ([1]; ref Iqbal et al., 2009): 1060 nM

O=[N+]([O-])c1ccc(NC(=S)N2N=C(c3ccccc3)CC2c2ccc(C3CC(c4ccccc4)=NN3C(=S)Nc3ccc([N+](=O)[O-])cc3)cc2)cc1 (stereo not shown) [Compound 32]
IC50 ([1]; ref Bhat et al., 2009a): 420 nM

CC(C)c1ccccc1C1CC(c2ccccc2)=NN1c1nc2nc3ccccc3nc2s1 (stereo not shown) [Compound 33, 2-{5-[2-(methylethyl)phenyl]-3-phenyl-2-pyrazolinyl}-1,3-thiazolino[5,4-b]quinoxaline]
IC50 ([1]; HM1:IMSS strain, ref Budakoti et al., 2009): 170 nM

COC(=O)c1ccc2c(c1)[n+]([O-])c(C(C)=O)c(C)[n+]2[O-] [Compound 37, methyl 2-acetyl-3-methyl-quinoxaline-7-carboxylate 1,4-di-N-oxide]
IC50 [1, 8]: 1410 nM

CCOC(=O)c1ccc2c(c1)[n+]([O-])c(C(N)=O)c(C)[n+]2[O-] [Compound 38, ethyl 2-amide-3-methylquinoxaline-7-carboxylate 1,4-di-N-oxide]
IC50 [1, 8]: 1470 nM

CC(=O)Oc1ccccc1C(=O)Nc1nc2ccc([N+](=O)[O-])cc2s1 [Compound 39, 2-{[(6-Nitro-1,3-benzothiazol-2-yl)amino]carbonyl}phenyl acetate]
IC50 ([1]; ref Navarrete-Vazquez et al., 2011): 297 nM | IC50 ([2]; in vitro, ref Navarrete-Vazquez et al., 2011): 3520 nM

COc1ccc(NC(=O)C(N)CCSC(F)(F)F)cc1OC (stereo not shown) [Compound 40, 3,4-dimethoxyanilide trifluoromethionine]
IC50 ([1]; in vitro, ref Sato et al., 2010): 1190 nM

COc1ccc2[nH]c(-c3ccc(OCCCCCOc4ccc(-c5nc6cc(OC)ccc6[nH]5)cc4)cc3)nc2c1 [Compound 41, 1,5-bis[4-(5-methoxy-1H-benzimidazole-2-yl)phenoxy]pentane]
IC50 [1, 9]: 109 nM

Cc1nc([N+](=O)[O-])cn1CC(=O)NCc1ccccc1 [Compound 42, N-benzyl-2-(2-methyl-4-nitro-1H-imidazol-1-yl)acetamide]
IC50 [1, 10]: 3960 nM

Cc1ccc(S(=O)(=O)n2cc([N+](=O)[O-])nc2C)cc1 [Compound 43, 2-methyl-1-[(4-methylphenyl)sulfonyl]-4-nitro-1H-imidazole]
IC50 [1, 10]: 3550 nM

O=[N+]([O-])c1cccc(/C=N/Nc2ccccc2)c1 [Compound 44, (E)-1-(3-nitrobenzylidene)-2-phenylhydrazine]
IC50 ([1]; in vitro, HM1:IMSS strain, ref Toledano-Magana et al., 2015): 840 nM

COc1ccc(Nc2c(C#N)cnc3sccc23)cc1 [Compound 58, 4-(4-methoxyphenylamino)thieno[2,3-b]pyridine-5-carbonitrile]
giardicidal effect ([3]; ref Bernardino et al., 2006): excellent giardicidal effect

COc1cc(-c2nc3cc(C)ccc3[nH]2)ccc1OCCCCCOc1ccc(-c2nc3cc(C)ccc3[nH]2)cc1OC [Compound 59, 1,5-bis[2-methoxy-4-(5-methyl-1H-benzimidazole-2-yl)phenoxy] pentane]
IC50 [3, 9]: 372 nM | IC50 ([3]; ref Torres-Gomez et al., 2008a): 372 nM | folds more potent than metronidazole ([3]; ref Torres-Gomez et al., 2008a): 3 folds | folds more potent than pentamidine ([3]; ref Torres-Gomez et al., 2008a): 9 folds | fold more activity than metronidazole ([3]; ref Torres-Gomez et al., 2008b): 3 fold | fold more activity than pentamidine ([3]; ref Torres-Gomez et al., 2008b): 9 fold

Cn1c(C(F)(F)F)nc2cc(Cl)ccc21 [Compound 60, 5-chloro-1-methyl-2-(trifluoromethyl)benzimidazole]
IC50 ([3]; in vitro, ref Gabriel Navarrete-Vaa Zquez et al., 2001): 42 nM

COc1ccc(C(=O)/C=C/c2ccccc2F)cc1 [Compound 61, (E)-3-(6-flourophenyl)-1-(4-methoxyphenyl)prop-2-en 1-one]
IC50 ([3]; ref Montes-Avila et al., 2009): 12700 nM

CCCSc1ccc2nc(C(F)(F)F)n(C)c2c1 [Compound 63, 1-methyl-6-(propylthio)-2-(trifluoromethyl)-1H-benzimidazole]
IC50 [3, 11]: 1400 nM

CCCSc1ccc2[nH]c(C(F)(F)F)nc2c1 [Compound 64, 5(6)-(propylthio) -2-(trifluoromethyl)-1H-benzimidazole]
IC50 [3, 11]: 1520 nM

Cn1c(C(F)(F)F)nc2cc(C(=O)c3ccccc3)ccc21 [Compound 65, 5-benzoyl-1-methyl-2-(trifluoromethyl)-1H-benzimidazole]
IC50 [3, 11]: 1100 nM

Cn1c(C(F)(F)F)nc2ccc(C(=O)c3ccccc3)cc21 [Compound 66, 6-benzoyl-1-methyl-2-(trifluoromethyl)-1H-benzimidazole]
IC50 [3, 11]: 1280 nM

COc1cc(NC(c2coc3ccccc3c2=O)c2nnnn2C2CCCCC2)cc(OC)c1OC (stereo not shown) [Compound 67, 3-((1-cyclohexyl-1H-tetrazol-5-yl)((3,4,5-trimethoxyphenyl)amino)methyl)-4H-chromen-4-one]
IC50 ([3]; ref Cano et al., 2014): 171000 nM

COC(=O)Nc1ncc([N+](=O)[O-])s1 [Compound 68, methyl 5-nitro-1,3-thiazol-2-ylcarbamate]
IC50 ([2]; ref Nava-Zuazo et al., 2014): 10 nM

CCOC(=O)C(=O)Nc1ncc([N+](=O)[O-])s1 [Compound 69, ethyl [(5-nitro-1,3-thiazol-2-yl)amino](oxo)acetate]
IC50 ([2]; ref Nava-Zuazo et al., 2014): 6410 nM

Cc1nc([N+](=O)[O-])cn1CC(=O)Nc1ccc(C#N)cc1 [Compound 72, N-(4-cyanophenyl)-2-(2-methyl-4-nitro-1H-imidazol-1-yl) acetamide]
IC50 [3, 12]: 11200 nM

Cc1nc([N+](=O)[O-])cn1S(=O)(=O)c1ccc([N+](=O)[O-])cc1 [Compound 73, 2-methyl-4-nitro-1-[(4-nitrophenyl)sulfonyl]-1H-imidazole]
IC50 [3, 12]: 7500 nM

CO[C@@H]1[C@H](OC(=O)NC(=O)CCl)CC[C@]2(CO2)[C@H]1[C@@]1(C)O[C@@H]1CC=C(C)C [TNP-470]
inhibition of E. intestinalis replication [4]: more than 70%

O=C1OCCN1/N=C/c1ccc([N+](=O)[O-])o1 [furazolidone, Furazolidone]
cure of I. belli induced diarrhea [5]; 1988: cure the I. belli induced diarrhea but to lesser extent

CCn1cc(C(=O)O)c(=O)c2cc(F)c(N3CCNCC3)cc21 [norfloxacin]
antimicrosporidial activity [6]: more than gatifloxacin (6), lomefloxacin (7), moxifloxacin (8), and nalidixic acid (9)

CO[C@@H]1C(=O)CC[C@]2(CO2)[C@@]1(O)[C@@]1(C)O[C@@H]1CC=C(C)C [ovalicin]
inhibition of E. intestinalis replication [4]: more than 70%

CCc1nc(N)nc(N)c1-c1ccc(Cl)cc1 [pyrimethamine]
cure of diarrheal disease caused by I. belli ([5]; ref Ferguson et al., 1980): cure the diarrheal disease

CCN(CC)CCCC(C)Nc1c2ccc(Cl)cc2nc2ccc(OC)cc12 (stereo not shown) [quinacrine]
cure of I. belli induced diarrhea [5]; 1988: cure the I. belli induced diarrhea but to lesser extent

CC[C@H]1OC(=O)[C@H](C)[C@@H](O[C@H]2C[C@@](C)(OC)[C@@H](O)[C@H](C)O2)[C@H](C)[C@@H](O[C@@H]2O[C@H](C)C[C@H](N(C)C)[C@H]2O)[C@](C)(O)C[C@@H](C)/C(=N\OCOCCOC)[C@H](C)[C@@H](O)[C@]1(C)O [roxithromycin]
efficacy in chronic I. belli induced diarrhea ([5]; when TMP-SMX or pyrimethamine treatments become inadequate, ref Musey et al., 1988): effective

Nc1ccc(S(=O)(=O)Nc2ncccn2)cc1 [sulfadiazine]
cure of diarrheal disease caused by I. belli ([5]; ref Ferguson et al., 1980): cure the diarrheal disease

CCS(=O)(=O)CCn1c([N+](=O)[O-])cnc1C [tinidazole]
cure of I. belli induced diarrhea [5]; 1988: cure the I. belli induced diarrhea but to lesser extent

Ni(Fctpy)2][PF6]2 [Compound 22]
activity against E. histolytica ([1]; ref Juneja et al., 2014): most promising activity

cyclosporine A [reference compound]
proliferation of E. histolytica ([1]; ref Carrero et al., 2004): inhibits proliferation

sirimamycin
efficacy in I. belli intestinal infection ([5]; when pyrimethamine-sulfadoxine fails, AIDS patients, ref Ferguson et al., 1980): effective
